The record followed here is patent publication US10336762B2 (priority 2017, dated 2019).

One test concerns TNFα. Kind of test: cells. Type of test: cell-based, human. The settings on record: Homo sapiens, Monocyte, LPS-stimulated human monocytes, TNFα content; read-out: EC50 TNF.
For the next test, the target named is IRAK4 enzyme (Homo sapiens (Human), UniProt Q9NWZ3). Kind of test: biochemical. Type of test: biochemical. The conditions noted are these: IRAK4 enzyme, TR-FRET (HTRF), 500 μM ATP. Background: In TR-FRET formats the signal depends on donor and acceptor labels being close together.

The EC50 is the concentration giving half of the maximal effect. What is called IC50 is the concentration needed to halve the response being measured. A low value points to higher potency.

IRAK4 enzyme, sequence (Q9NWZ3 whole entry): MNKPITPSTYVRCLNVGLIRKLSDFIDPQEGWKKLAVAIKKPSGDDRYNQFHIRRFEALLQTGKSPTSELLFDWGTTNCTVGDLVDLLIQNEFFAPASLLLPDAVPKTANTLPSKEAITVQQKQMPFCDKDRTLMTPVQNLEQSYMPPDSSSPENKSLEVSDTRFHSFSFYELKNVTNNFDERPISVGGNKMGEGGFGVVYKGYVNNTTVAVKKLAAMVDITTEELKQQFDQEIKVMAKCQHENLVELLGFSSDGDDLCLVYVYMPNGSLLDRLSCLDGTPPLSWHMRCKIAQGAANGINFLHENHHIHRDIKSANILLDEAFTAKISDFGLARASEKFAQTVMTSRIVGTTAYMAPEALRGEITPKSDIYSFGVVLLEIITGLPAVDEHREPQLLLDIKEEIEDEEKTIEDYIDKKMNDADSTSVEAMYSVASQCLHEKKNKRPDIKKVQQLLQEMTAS

For the compound `CNC(=O)OC12CCC(Nc3cc(-c4ccc5cc(C#N)cnn45)ncc3C(=O)NC[C@@H](F)C(C)(C)O)(CC1)CC2` [Example 412, (R)-4-((2-(3-cyanopyrrolo[1,2-b]pyridazin-7-yl)-5-((2-fluoro-3-hydroxy-3-methylbutyl)carbamoyl)pyridin-4-yl)amino)bicyclo[2.2.2]octan-1-yl methylcarbamate], the EC50 with TNFα is 44 nM. The compound further came in with an IC50 against IRAK4 enzyme of 1 nM.

As for `CC(C)(O)[C@H](F)CNC(=O)c1cnc(-c2ccc3cc(C#N)cnn23)cc1Nc1ccc(C#N)cn1` [Example 413, (R)-4-((5-cyanopyridin-2-yl)amino)-6-(3-cyano-pyrrolo[1,2-b]pyridazin-7-yl)-N-(2-fluoro-3-hydroxy-3-methylbutyl) nicotinamide], the EC50 in the test with TNFα was determined as 98 nM. The compound also displayed an IC50 on IRAK4 enzyme of less than 1 nM.

`COC12CCC(Nc3cc(-c4ccc5cc(C#N)cnn45)ncc3C(=O)NC[C@@H](F)C(C)(C)O)(CC1)CC2` [Example 414, 6-(3-cyanopyrrolo[1,2-b]pyridazin-7-yl)-N-((R)-2-fluoro-3-hydroxy-3-methylbutyl)-4-((4-methoxybicyclo[2.2.2]octan-1-yl)amino)nicotinamide]: the EC50 in the test on TNFα was found to be 178 nM. The IC50 on IRAK4 enzyme came out at 12 nM.

`CN(C)C(=O)C12CCC(Nc3cc(-c4ccc5cc(C#N)cnn45)ncc3C(=O)NC[C@@H](F)C(C)(C)O)(CC1)CC2` [Example 415, (R)-6-(3-cyanopyrrolo[1,2-b]pyridazin-7-yl)-4-((4-(dimethylcarbamoyl)bicyclo[2.2.2]octan-1-yl)amino)-N-(2-fluoro-3-hydroxy-3-methyl-butyl)nicotinamide]: the EC50 in the test with TNFα was determined as 14 nM. In addition, on IRAK4 enzyme, 1 nM corresponded to half-maximal inhibition (IC50).

Regarding `CNC(=O)C12CCC(Nc3cc(-c4ccc5cc(C#N)cnn45)ncc3C(=O)NC[C@@H](F)C(C)(C)O)(CC1)CC2` [Example 416, 6-(3-cyanopyrrolo[1,2-b]pyridazin-7-yl)-N-((R)-2-fluoro-3-hydroxy-3-methylbutyl)-4-((4-(methylcarbamoyl)bicyclo[2.2.2]octan-1-yl)amino)nicotinamide], in the test on TNFα, the EC50 was 16 nM. Moreover, the IC50 against IRAK4 enzyme was 1 nM.

With `CC(=O)OC12CCC(Nc3cc(-c4ccc5cc(C#N)cnn45)ncc3C(=O)NC[C@@H](F)C(C)(C)OC(C)=O)(CC1)CC2` [Example 417, 4-((5-(((R)-3-acetoxy-2-fluoro-3-methylbutyl)carbamoyl)-2-(3-cyanopyrrolo[1,2-b]pyridazin-7-yl)pyridin-4-yl)amino)bicyclo[2.2.2]octan-1-yl acetate], the 50% effective concentration (EC50) in the test on TNFα came to 151 nM. Also, at IRAK4 enzyme, the IC50 is 5 nM.

Turning to `CC(=O)OC12CCC(Nc3cc(-c4ccc5cc(C#N)cnn45)ncc3C(=O)NC[C@@H](F)C(C)(C)O)(CC1)CC2` [Example 418, 4-((2-(3-cyanopyrrolo[1,2-b]pyridazin-7-yl)-5-(((R)-2-fluoro-3-hydroxy-3-methylbutyl)carbamoyl)pyridin-4-yl)amino)bicyclo[2.2.2]octan-1-yl acetate], the EC50 with TNFα was found to be 36 nM. At IRAK4 enzyme, this compound returned an IC50 of 1 nM.

As for `CC(C)(O)[C@H](F)CNC(=O)c1cnc(-c2ccc3cc(C#N)cnn23)cc1NC1C2CC3CC1CC(O)(C3)C2` (stereo partly drawn) [Example 419, 6-(3-cyanopyrrolo[1,2-b]pyridazin-7-yl)-N-((R)-2-fluoro-3-hydroxy-3-methylbutyl)-4-((5-hydroxyadamantan-2-yl)amino)nicotinamide], the EC50 in the test with TNFα came to 127 nM. This compound came in with an IC50 against IRAK4 enzyme of 3 nM.

Take `CC(C)(O)[C@H](F)CNC(=O)c1cnc(-c2ccc3cc(C#N)cnn23)cc1Nc1ncc(C#N)cn1` [Example 420, (R)-4-((5-cyanopyrimidin-2-yl)amino)-6-(3-cyano-pyrrolo[1,2-b]pyridazin-7-yl)-N-(2-fluoro-3-hydroxy-3-methylbutyl)nicotinamide]: in the test on TNFα, the EC50 stood at 122 nM. Further, inhibition against IRAK4 enzyme was half-maximal at 6 nM (IC50).

As for `CC(C)(O)[C@H](F)CNC(=O)c1cnc(-c2ccc3cc(C#N)cnn23)cc1NC12CCC(CC1)CC2` [Example 421, (R)-4-(bicyclo[2.2.2]octan-1-ylamino)-6-(3-cyano-pyrrolo[1,2-b]pyridazin-7-yl)-N-(2-fluoro-3-hydroxy-3-methylbutyl)nicotinamide], the half-maximal effective concentration (EC50) with TNFα is 24 nM. The compound also displayed a half-maximal inhibitory concentration (IC50) against IRAK4 enzyme of 2 nM.

With `CC(C)(O)[C@H](F)CNC(=O)c1cnc(-c2ccc3cc(C#N)cnn23)cc1N[C@H]1CC[C@H](NC(=O)C2(F)CC2)CC1` [Example 422, 6-(3-cyanopyrrolo[1,2-b]pyridazin-7-yl)-N-((R)-2-fluoro-3-hydroxy-3-methylbutyl)-4-(((1r,4R)-4-(1-fluorocyclopropane-1-carboxamido)cyclohexyl)amino)nicotinamide], the half-maximal effective concentration (EC50) in the test on TNFα was found to be 76 nM. The same compound returned an IC50 against IRAK4 enzyme of 2 nM.

Consider `CC1(C(=O)N[C@H]2CC[C@H](Nc3cc(-c4ccc5cc(C#N)cnn45)ncc3C(=O)NC[C@@H](F)C(C)(C)O)CC2)CC1` [Example 423, 6-(3-cyanopyrrolo[1,2-b]pyridazin-7-yl)-N-((R)-2-fluoro-3-hydroxy-3-methyl-butyl)-4-(((1r,4R)-4-(1-methylcyclopropane-1-carboxamido)cyclohexyl)amino)nicotinamide], for which, in the test on TNFα, the EC50 is 94 nM. This compound also displayed an IC50 against IRAK4 enzyme of 2 nM.

`C=CC(=O)NC12CCC(Nc3cc(-c4ccc5cc(C#N)cnn45)ncc3C(=O)NC[C@@H](F)C(C)(C)O)(CC1)CC2` [Example 424, (R)-4-((4-acrylamidobicyclo[2.2.2]octan-1-yl)amino)-6-(3-cyanopyrrolo[1,2-b]pyridazin-7-yl)-N-(2-fluoro-3-hydroxy-3-methyl-butyl)nicotinamide]: the EC50 in the test with TNFα was 18 nM. This compound displayed an IC50 against IRAK4 enzyme of 1 nM.

Turning to `C=CC(=O)N[C@H]1CC[C@H](Nc2cc(-c3ccc4cc(C#N)cnn34)ncc2C(=O)NC[C@@H](F)C(C)(C)O)CC1` [Example 425, 4-(((1r,4R)-4-acrylamidocyclohexyl)amino)-6-(3-cyano-pyrrolo[1,2-b]pyridazin-7-yl)-N-((R)-2-fluoro-3-hydroxy-3-methylbutyl) nicotinamide], the EC50 with TNFα worked out at 120 nM. Also, the IC50 against IRAK4 enzyme was determined as 2 nM.

As for `N#Cc1cnn2c(-c3cc(N[C@H]4CCC[C@@H](O)C4)c(C(=O)NC4C[C@H]4F)cn3)ccc2c1` (stereo partly drawn) [Example 426, 6-(3-cyanopyrrolo[1,2-b]pyridazin-7-yl)-N-((2R)-2-fluorocyclopropyl)-4-(((1S,3R)-3-hydroxycyclo-hexyl)amino)nicotinamide], the concentration for a half-maximal effect (EC50) with TNFα amounted to 591 nM. In addition, half-maximal inhibition on IRAK4 enzyme (IC50) was put at 5 nM.

On to `N#Cc1cnn2c(-c3cc(N[C@H]4CCC[C@@H](O)C4)c(C(=O)NC4CC5(C4)CC(F)(F)C5)cn3)ccc2c1` [Example 427, 6-(3-cyanopyrrolo[1,2-b]pyridazin-7-yl)-N-(6,6-difluorospiro[3.3]heptan-2-yl)-4-(((1S,3R)-3-hydroxycyclohexyl)amino) nicotinamide], for which the EC50 in the test on TNFα was determined as 278 nM. On IRAK4 enzyme, this compound yielded an IC50 of 2 nM.

As for `N#Cc1cnn2c(-c3cc(N[C@H]4CCC[C@@H](O)C4)c(C(=O)NCC4(C#N)CC4)cn3)ccc2c1` [Example 428, N-((1-cyanocyclopropyl)methyl)-6-(3-cyano-pyrrolo[1,2-b]pyridazin-7-yl)-4-(((1S,3R)-3-hydroxycyclohexyl)amino)nicotinamide], the EC50 with TNFα worked out at 4270 nM. The same compound had an IC50 on IRAK4 enzyme of 63 nM.

In the case of `CC(C)(O)[C@H](F)CNC(=O)c1cnc(-c2ccc3cc(C#N)cnn23)cc1N[C@]1(C)C[C@@H](O)C1` [Example 429, 6-(3-cyanopyrrolo[1,2-b]pyridazin-7-yl)-N-((R)-2-fluoro-3-hydroxy-3-methylbutyl)-4-(((1r,3R)-3-hydroxy-1-methylcyclo-butyl)amino)nicotinamide], the EC50 in the test on TNFα turned out to be 36 nM. Also, the midpoint of inhibition on IRAK4 enzyme, the IC50, lay at 1 nM.

For `N#Cc1cnn2c(-c3cc(N[C@H]4CCC[C@@H](O)C4)c(C(=O)NC4CC4(F)F)cn3)ccc2c1` (stereo partly drawn) [Example 430, 6-(3-cyanopyrrolo[1,2-b]pyridazin-7-yl)-N-(2,2-difluorocyclopropyl)-4-(((1S,3R)-3-hydroxy-cyclohexyl)amino) nicotinamide], the EC50 in the test with TNFα came to 488 nM. Moreover, on IRAK4 enzyme, the IC50 turned out to be 14 nM.

Take `CC(C)(O)[C@H](F)CNC(=O)c1cnc(-c2ccc3cc(C#N)cnn23)cc1N[C@]1(C)CC[C@H](O)CC1` [Example 432, 6-(3-cyanopyrrolo[1,2-b]pyridazin-7-yl)-N-((R)-2-fluoro-3-hydroxy-3-methylbutyl)-4-(((1s,4S)-4-hydroxy-1-methylcyclohexyl)amino) nicotinamide]: the EC50 in the test on TNFα was 37 nM. Further, the IC50 on IRAK4 enzyme is less than 1 nM.

As for `CC(C)(O)[C@H](F)CNC(=O)c1cnc(-c2ccc3cc(C#N)cnn23)cc1N[C@]1(C)C[C@H](O)C1` [Example 433, 6-(3-cyanopyrrolo[1,2-b]pyridazin-7-yl)-N-((R)-2-fluoro-3-hydroxy-3-methylbutyl)-4-(((1s,3S)-3-hydroxy-1-methylcyclobutyl)amino) nicotinamide], the EC50 with TNFα was 47 nM. Moreover, the half-maximal inhibitory concentration (IC50) against IRAK4 enzyme was less than 1 nM.

On to `CC(C)(O)[C@H](F)CNC(=O)c1cnc(-c2ccc3cc(C#N)cnn23)cc1Nc1ccc2c(c1)CNC2=O` [Example 434, (R)-6-(3-cyanopyrrolo[1,2-b]pyridazin-7-yl)-N-(2-fluoro-3-hydroxy-3-methylbutyl)-4-((1-oxoisoindolin-5-yl)amino)nicotinamide], for which, in the test on TNFα, the EC50 stood at 107 nM. This compound registered an IC50 at IRAK4 enzyme of less than 1 nM.

For `CC(C)(O)[C@H](F)CNC(=O)c1cnc(-c2ccc3cc(C#N)cnn23)cc1Nc1ccc(O)nc1` [Example 435, (R)-6-(3-cyanopyrrolo[1,2-b]pyridazin-7-yl)-N-(2-fluoro-3-hydroxy-3-methylbutyl)-4-((6-hydroxypyridin-3-yl)amino)nicotinamide], the EC50 with TNFα was greater than 10000 nM. At IRAK4 enzyme, this compound gave a half-inhibitory concentration (IC50) of 10000 nM.

On to `CC(C)(O)[C@H](F)CNC(=O)c1cnc(-c2ccc3cc(C#N)cnn23)cc1NCCCCS(C)(=O)=O` [Example 438, (R)-6-(3-cyanopyrrolo[1,2-b]pyridazin-7-yl)-N-(2-fluoro-3-hydroxy-3-methylbutyl)-4-((4-(methylsulfonyl)butyl)amino)nicotinamide], for which, in the test with TNFα, the 50% effective concentration (EC50) stood at 135 nM. At IRAK4 enzyme, this compound gave an IC50 of 1 nM.
